Read-outs that look alike come from different tables or passages of the source.

The values below come from publication PMC6757420, “Identifying the active components of Baihe–Zhimu decoction that ameliorate depressive disease by an effective integrated strategy: a systemic pharmacokinetics study combined with classical depression model tests” (Chinese Medicine, 2019).

Series [1] can be described thus: pharmacokinetic study of five major components after oral administration of BZD (HPLC-QQQ MS). In kind it is in vivo, Sprague–Dawley (SD) rats. To be noted: rats, oral BZD 15 g/kg; for Cmax / Tmax / half-life / AUC(0-t): Sprague-Dawley, rat, po, 15 g/kg, n = 5; for Cmax: read-out: Cmax; for Tmax: read-out: Tmax; for AUC(0-t): read-out: AUC0–t; for ER (liver extraction ratio): from portal vein plasma and systemic plasma. On the procedure: The HPLC-QQQ MS method was developed according to a previous study in our group. Briefly, five compounds were simultaneously determined in plasma, liver and brain samples using a 1260 Series liquid chromatography system (Agilent Technologies, Palo Alto, CA, USA) coupled to a 6460 triple quadrupole mass spectrometer with an electrospray ionization source (Agilent Technologies, Palo Alto, CA, USA). Chromatographic separation was performed on an ACE Super C18 column (100 mm × 2.1 mm, 3.0 µm, Advanced Chromatography Technologies Ltd. Aberdeen, Scotland) at a temperature of 40 °C. The mobile phase consisted of water containing 0.1% formic acid (A) and acetonitrile containing 0.1% formic acid (B). The gradient program was performed as follows: 0–3 min, 92% A; 3.5–4.0 min, 88–60% A; 5.5–6 min, 60–55% A; 6.6–7 min, 55–5% A; 11–11.01 min, 5–92% A; 11.01–13.5 min, 92% A. The flow rate was set to 0.35 mL/min in the time range of 0–6.6 min and kept at 0.45 mL/min between 7 and 13.5 min. Five components were monitored in negative multiple reaction monitoring (MRM) mode. The parameters of the mass spectrometer were as follows: capillary voltage, 3500 V; nebulizer, 45 psi; gas temperature, 350 °C; gas flow rate, 12 L/min; sheath gas temperature, 400 °C; sheath gas flow rate, 8 L/min. MassHunter Workstation software (Agilent Technologies, Palo Alto, CA, USA) was used for system operation and data analysis.
All Sprague–Dawley (SD) rats and ICR mice were purchased from Shanghai SLAC Laboratory Animal Co., Ltd. and kept in the breeding room at 22 ± 2 °C and 50 ± 10% humidity in Shanghai Institute of Materia Medica (SIMM). The experimental protocols were approved by the Institutional Animal Care and Use Committee in SIMM. After 1 week of acclimation, all the SD rats were orally administered BZD (15 g/kg). The biological samples were collected from the rats after fasting for 12 h. After anaesthetization, the rats were dissected at 5 min, 15 min, 30 min, 1 h, 2 h, 4 h, 7 h, 10 h, 20 h and 40 h (n = 5 for each time-point). The hepatic portal vein plasma (2 mL) and the systemic plasma (6–8 mL) were subsequently harvested, and finally the liver and brain tissue samples were collected. The plasma sample were centrifuged at 9500×g for 5 min, and the tissue samples were washed with saline solution. All samples were stored at − 80 °C until analysis. The samples were prepared according to the method described in the previous study by our group.
A noncompartmental analysis was carried out using WinNonlin software (Pharsight 6.2, NC, USA) to calculate the PK parameters. The significance of the results in behavior assessment was analyzed by unpaired Student’s t-tests. A P value less than 0.05 was considered significant. The liver extraction ratio (ER) indicated the fraction of hepatic clearance and first-pass effect, and the calculation formula was as reported in a previous study by our group.

The test system of series [2] is ICR mice. Put plainly: tail suspension test (TST). To be noted: Table 4, oral administration for 8 days, n = 8, 10 mg/kg, control 102.0 ± 16.9. The format is in vivo. On the procedure: (§1) The antidepressant activity of the drugs was evaluated by classic behavioral measurements, such as the forced swimming test (FST) and tail suspension test (TST). All the ICR mice were randomly divided into several groups (n = 8) as follows: a control group with stimulation and different test groups subjected to FST and TST after the oral administration of different drugs for 8 days, including fluoxetine (10 mg/kg), BZD (3 g/kg), ZD (3 g/kg), Baihe decoction (BD, 3 g/kg), PZ (21.2 mg/kg), XZ (21.2 mg/kg), SZ (21.2 mg/kg), timosaponin BII (10 mg/kg) and timosaponin BIII (10 mg/kg).
(§2) The FST was performed according to a previously described method with minor modifications. Briefly, each mouse was individually placed in an open water-filled cylinder (H: 50 cm; Ø: 20 cm; water depth: 35 cm; temperature: 23–25 °C) and allowed to swim for a period of 6 min. The total time of immobility was recorded during the last 4 min of the testing duration. Immobility is defined as the mice floating in the water without movement. The TST was conducted as described in the literature. Briefly, the mice were suspended 20 cm above the floor for 6 min. The time of immobility was recorded after the first 2 min. Mice in a completely motionless state were considered immobile.

Series [3] concerns ICR mice. As to the kind of experiment: forced swimming test (FST). In kind it is in vivo. To be noted: Table 4, oral administration for 8 days, n = 8, 10 mg/kg, control 118.1 ± 24.3. As for the experimental part: as §1, §2
For another series, the system named is dopamine (DA). Put plainly: content of dopamine (DA) by ELISA kit. The format is in vivo, ICR mice. To be noted: Table 5; 10 mg/kg oral; control 171.6 ± 54.5. As for the experimental part:
as §1
(§3) The contents of dopamine (DA) and serotonin (5-HT) in the plasma were determined using ELISA Kits (Shanghai Jianglai Biotech Co., Ltd., Shanghai, China) according to the manufacturer’s instructions.

The subject of the next series is serotonin (5-HT). Put plainly: content of serotonin (5-HT) by ELISA kit. In kind it is in vivo, ICR mice. To be noted: Table 5; 10 mg/kg oral; control 636.2 ± 80.1. As for the experimental part: as §1, §3
The subject of a further series is depressive rats. To be noted: depressive rats; likely related to the content of 5-HT in the brain; cited from earlier work.
Setting [4] is: hepatic portal vein plasma, portal vein plasma.
[5] abbreviates: systemic plasma, systemic plasma.

Regarding `C[C@@H](CC[C@@]1(O)O[C@H]2C[C@H]3[C@@H]4CC[C@@H]5C[C@@H](O[C@@H]6O[C@H](CO)[C@H](O)[C@H](O)[C@H]6O[C@@H]6O[C@H](CO)[C@@H](O)[C@H](O)[C@H]6O)CC[C@]5(C)[C@H]4CC[C@]3(C)[C@H]2[C@@H]1C)CO[C@@H]1O[C@H](CO)[C@@H](O)[C@H](O)[C@H]1O` [Timosaponin BII, timosaponin BII], the Cmax in series [1] (cerebellum, cerebellum) was 1170 ± 93.4 ng/g; in series [1] (setting [4]), 880 ± 160 ng/mL; in series [1] (hippocampus, hippocampus), 372 ± 154 ng/g; in series [1] (liver, liver), 302 ± 102 ng/g; in series [1] (setting [5]), 277 ± 48.4 ng/mL. The Tmax was 0.25 h in series [1] (cerebellum, cerebellum); 0.25 h in series [1] (setting [4]); 10 h in series [1] (hippocampus, hippocampus); 0.08 h in series [1] (liver, liver); 0.25 h in series [1] (setting [5]). In addition, the half-life in series [1] (cerebellum) was 16.2 h; in series [1] (setting [4]), 119 h; in series [1] (hippocampus) it was 27.4 h; in series [1] (liver), 116 h; in series [1] (systemic plasma) it was 35.8 h. The AUC(0-t) in series [1] (setting [4]) was 1090 ± 184 ng·h/mL; in series [1] (setting [5]), 976 ± 254 ng·h/mL. Also, the “ER (liver extraction ratio)” value in series [1] and in series [1] (listed as timosaponin BII) was 10.88% in each case. In addition, the “Immobility time (mean ± SD, s) TST” value in the series on ICR mice [2] is on record as 48.2 ± 23.1 s. In the series with ICR mice [3], the “Immobility time (mean ± SD, s) FST” value came to 72.1 ± 19.6 s. In addition, in the series with dopamine (DA), the “Content (ng/g) DA” value came to 196.9 ± 56.7 ng/g. Also, the “Content (ng/g) 5-HT” value with serotonin (5-HT) is given as 716.5 ± 90.4 ng/g. Also, the antidepressant effect result in the series on depressive rats is recorded as “significant antidepressant effect”.
